Each structure is given as a SMILES string.

The assay relates to subjects. In words: Rate of urea production by tracer technique after ingestion of EAAs following resistance exercise. The format is in vivo. The conditions noted are these: infusion, same tracer methodology, same time interval. The protocol:
Acute changes in the rate of urea production were measured using a tracer technique known to those of skill in the art. […] The reason for the lack of an increase in urea production is believed to be the reutilization of non-essential amino acids for muscle protein synthesis rather than transport to the liver for degradation and incorporation of the nitrogen into urea. This is reflected by the steady drop in the concentration of alanine in the blood, as depicted in the chart of FIG. 2B. Thus, the EAA blend greatly stimulates net muscle protein synthesis without increasing blood urea concentration. This aspect of the disclosed composition is of potentially great advantage to CKD patients, as the provision of intact protein alone increases blood urea while having minimal effect on muscle protein net balance.

With `C[C@H](N)C(=O)O` [alanine], the Urea production result is reported as “stimulated urea significantly”.

Turning to `NC(=O)CC[C@H](N)C(=O)O` [glutamine], the Urea production entry is given as “stimulated urea significantly”.
